Measurements from patent publication US9840511B2, “2-(aryl or heteroaryl-)phenyl (AZA)benzofuran compounds for the treatment of hepatitis C” (BRISTOL-MYERS SQUIBB COMPANY, priority 2014, dated 2017).
Read-outs that look alike come from different tables or passages of the source.

Assays:
[1] = tested on: genotype 1b (Con-1) HCV replicon; experiment: HCV replicon luciferase assay; format: cell-based; conditions: Hepatitis C virus, 72 h, Huh-7 cells, genotype 1b replicon, Renilla luciferase, 3 days incubation
Description: Cell lines. The cell lines used to evaluate compounds consist of a human hepatocyte derived cell line (Huh-7) that constitutively expresses a genotype 1b (Con-1) HCV replicon or a genotype 1b (Con-1) HCV replicon with an asparagine replacing the cysteine at amino acid 316, or a genotype 2a (JFH-1) replicon, containing a Renilla luciferase reporter gene. These cells were maintained in Dulbecco's modified Eagle medium (DMEM) containing 10% FBS, 100 U/mL penicillin/streptomycin and 1.0 mg/mL G418.
HCV replicon luciferase assay. To evaluate compound efficacy, titrated compounds were transferred to sterile 384-well tissue culture treated plates, and the plates were seeded with HCV replicon cells (50 μL at a density of 2.4×10^3 cells/well) in DMEM containing 4% FBS (final DMSO concentration at 0.5%). After 3 days incubation at 37° C., cells were analyzed for Renilla Luciferase activity using the EnduRen substrate (Promega cat #E6485) according to the manufacturer's directions. Briefly, the EnduRen substrate was diluted in DMEM and then added to the plates to a final concentration of 7.5 μM. The plates were incubated for at least 1 h at 37° C. then read on a Viewlux Imager (PerkinElmer) using a luminescence program. The 50% effective concentration (EC50) was calculated using the four-parameter logistic formula noted above.
Compound EC50 data is expressed as A:<100 nM; B=100-1000 nM; C>1000 nM).

[2] = tested on: HCV; conditions: combination therapy; cited from earlier work
[3] = extended dosing of the combination regimens; cited from earlier work

CNC(=O)c1c(-c2ccc(-n3cncn3)cc2)oc2nc(CCC(F)(F)F)c(-c3cccc(C(=O)NC(C)(C)C)c3)cc12 [Compound 3007]
EC50 ([1]; read-out: EC50 lb (class)): 0.1 to 1 µM

CNC(=O)c1c(-c2ccc(-n3cnc(C)n3)cc2)oc2nc(CCC(F)(F)F)c(-c3cccc(C(=O)NC(C)(C)C)c3)cc12 [Compound 3004]
EC50 ([1]; read-out: EC50 lb (class)): 0.1 to 1 µM

alpha-interferon and ribavirin
sustained efficacy, share of patients [2]: 40%

CNC(=O)c1c(-c2ccc(-n3ccc(C)n3)cc2)oc2nc(CCC(F)(F)F)c(-c3cccc(C(=O)NC(C)(C)C)c3)cc12 [Compound 3010]
EC50 ([1]; read-out: EC50 (uM) lb): 0.28 µM
EC50 ([1]; read-out: EC50 lb (class)): 0.1 to 1 µM

CNC(=O)c1c(-c2ccc(-n3cnnc3C)cc2)oc2nc(CCC(F)(F)F)c(-c3cccc(C(=O)NC(C)(C)C)c3)cc12 [Compound 3003]
EC50 ([1]; read-out: EC50 (uM) lb): 3.32 µM
EC50 ([1]; read-out: EC50 lb (class)): > 1 µM

CCN(c1cc2oc(-c3ccc(-n4cccn4)cc3)c(C(=O)NC)c2cc1-c1cccc(C(=O)NC(C)(C)C)c1)S(C)(=O)=O [Compound 1001]
EC50 ([1]; read-out: EC50 (uM) lb): 0.017 µM
EC50 ([1]; read-out: EC50 lb (class)): < 0.1 µM

CNC(=O)c1c(-c2ccc(-n3ccnc3)cc2)oc2nc(CCC(F)(F)F)c(-c3cccc(C(=O)NC(C)(C)C)c3)cc12 [Compound 3006]
EC50 ([1]; read-out: EC50 lb (class)): 0.1 to 1 µM

CNC(=O)c1c(-c2ccc(-n3ccnn3)cc2)oc2nc(CCC(F)(F)F)c(-c3cccc(C(=O)NC(C)(C)C)c3)cc12 [Compound 3001]
EC50 ([1]; read-out: EC50 (uM) lb): 0.035 µM
EC50 ([1]; read-out: EC50 lb (class)): < 0.1 µM

CNC(=O)c1c(-c2ccc(-n3cc(C(F)(F)F)cn3)cc2)oc2nc(-n3cc(C(F)(F)F)cn3)c(-c3cccc(C(=O)NC(C)(C)C)c3)cc12 [Compound 2002]
EC50 ([1]; read-out: EC50 lb (class)): > 1 µM

CNC(=O)c1c(-c2ccc(-c3ncccc3O)cc2)oc2nc(CCC(F)(F)F)c(-c3cccc(C(=O)NC(C)(C)C)c3)cc12 [Compound 4001]
EC50 ([1]; read-out: EC50 lb (class)): 0.1 to 1 µM

CNC(=O)c1c(-c2ccc(-n3ncnc3C)cc2)oc2nc(CCC(F)(F)F)c(-c3cccc(C(=O)NC(C)(C)C)c3)cc12 [Compound 3002]
EC50 ([1]; read-out: EC50 lb (class)): > 1 µM

CCN(c1cc2oc(-c3ccc(-n4ccnn4)cc3)c(C(=O)NC)c2cc1-c1cccc(C(=O)NC(C)(C)C)c1)S(C)(=O)=O [Compound 1002]
EC50 ([1]; read-out: EC50 (uM) lb): 0.069 µM
EC50 ([1]; read-out: EC50 lb (class)): < 0.1 µM

CNC(=O)c1c(-c2ccc(-n3ccc(C(F)(F)F)n3)cc2)oc2nc(-n3ccc(C(F)(F)F)n3)c(-c3cccc(C(=O)NC(C)(C)C)c3)cc12 [Compound 2001]
EC50 ([1]; read-out: EC50 lb (class)): 0.1 to 1 µM

CNC(=O)c1c(-c2ccc(-n3cc(C)cn3)cc2)oc2nc(CCC(F)(F)F)c(-c3cccc(C(=O)NC(C)(C)C)c3)cc12 [Compound 3008]
EC50 ([1]; read-out: EC50 lb (class)): > 1 µM

CNC(=O)c1c(-c2ccc(F)cc2)oc2cc(N(CCO)S(C)(=O)=O)c(C3CC3)cc12 [HCV-796]
hepatic toxicity [3]: hepatic toxicity observed

CCN(c1cc2oc(-c3ccc(-n4nccn4)cc3)c(C(=O)NC)c2cc1-c1cccc(C(=O)NC(C)(C)C)c1)S(C)(=O)=O [Compound 1003]
EC50 ([1]; read-out: EC50 lb (class)): < 0.1 µM

CNC(=O)c1c(-c2ccc(-n3cnc(C)c3)cc2)oc2nc(CCC(F)(F)F)c(-c3cccc(C(=O)NC(C)(C)C)c3)cc12 [Compound 3009]
EC50 ([1]; read-out: EC50 lb (class)): > 1 µM
